Patent US20250295646A1, “METHODS OF USE OF T-TYPE CALCIUM CHANNEL MODULATORS” (Praxis Precision Medicines, Inc., priority 2022, published 2025)

Tested on: adult patients with essential tremor
Assay: Essential tremor trial Example 16 Part B open-label titration phase: TETRAS, mADL, ADL efficacy
Type: in vivo, human
Set-up: reduction in upper limb tremor amplitude / LS mean reduction in upper limb tremor amplitude / reduction in combined upper limb tremor amplitude: concentration or dose not given beside the values
Settings: for TETRAS ADL Score CFB LS Mean / TETRAS CULS Score CFB LS Mean / TETRAS PS Item 6: Archimedes Spiral (Left) Score CFB LS Mean / TETRAS PS Item 6: Archimedes Spiral (Right) Score CFB LS Mean / TETRAS PS Item 7: Handwriting Score CFB LS Mean / TETRAS PSTS Score CFB LS Mean / TETRAS ULS Score CFB LS Mean / TETRAS mADL (TETRAS modified total score) Score CFB LS Mean / TETRAS ADL CTA LS Mean % / TETRAS CULS CTA LS Mean % / TETRAS PS Item 6: Archimedes Spiral (Left) CTA LS Mean % / TETRAS PS Item 6: Archimedes Spiral (Right) CTA LS Mean % / TETRAS PS Item 7: Handwriting CTA LS Mean % / TETRAS PSTS CTA LS Mean % / TETRAS ULS CTA LS Mean % / TETRAS mADL CTA LS Mean %: Part B - OLT, FAS; for TETRAS ADL Score CFB LS Mean / TETRAS CULS Score CFB LS Mean / TETRAS PS Item 6: Archimedes Spiral (Left) Score CFB LS Mean / TETRAS PS Item 6: Archimedes Spiral (Right) Score CFB LS Mean / TETRAS PS Item 7: Handwriting Score CFB LS Mean / TETRAS PSTS Score CFB LS Mean / TETRAS ULS Score CFB LS Mean / TETRAS mADL (TETRAS modified total score) Score CFB LS Mean: change from pre-dose baseline; for TETRAS ADL CTA LS Mean % / TETRAS CULS CTA LS Mean % / TETRAS PS Item 6: Archimedes Spiral (Left) CTA LS Mean % / TETRAS PS Item 6: Archimedes Spiral (Right) CTA LS Mean % / TETRAS PS Item 7: Handwriting CTA LS Mean % / TETRAS PSTS CTA LS Mean % / TETRAS ULS CTA LS Mean % / TETRAS mADL CTA LS Mean %: from pre-dose baseline; for TETRAS ADL score, LS mean change from pre-dose baseline / TETRAS combined upper limb score, LS mean change from pre-dose baseline / TETRAS upper limb score, LS mean change from pre-dose baseline / mADL score, LS mean change from pre-dose baseline / reduction in combined upper limb tremor amplitude / reduction in upper limb tremor amplitude / ADL, LS mean change from pre-dose baseline / LS mean reduction in upper limb tremor amplitude / mADL, LS mean change from pre-dose baseline: Part B OLT
Procedure: A two part trial (Part A and Part B as described below) was conducted to study the efficacy, safety, tolerability, and pharmacokinetics of the compound of formula (I) in adult patients with essential tremor (ET).
Participants were males and females ages 18 and older with a clinical diagnosis of ET. Participants who have a history of any other medical, neurological, or psychiatric condition that may explain or cause tremor were excluded. Participants who have previously received treatment with formula (I) in any clinical trial (including Part A of the current trial for participants enrolling in Part B) were also excluded.
In Part B, an open label titration phase and a randomized, double-blind, placebo-controlled trial was conducted. […] During the withdrawal phase, patients either continued receiving formula (I) at their current dose or switched to placebo, depending on the randomization, for 14 days (Day 43 to Day 56).

[1] = Day 7, subset with baseline upper limb scores ≥10
[2] = Day 21, subset with baseline upper limb scores ≥10

In the case of CC(C)(C)NC(=O)CN1CCC(CNC(=O)c2cc(F)cc(Cl)c2)CC1 [compound of formula (I), N-((1-(2-(tert-butylamino)-2-oxoethyl)piperidin-4-yl)methyl)-3-chloro-5-fluorobenzamide], the “TETRAS ADL Score CFB LS Mean” value (Day 7) is reported as −1.986, the “TETRAS CULS Score CFB LS Mean” value (Day 7) is reported as −0.909 and the “TETRAS PS Item 6: Archimedes Spiral (Left) Score CFB LS Mean” value (Day 7) is reported as 0.221. The “TETRAS PS Item 6: Archimedes Spiral (Right) Score CFB LS Mean” value (Day 7) was 0.006, the “TETRAS PS Item 7: Handwriting Score CFB LS Mean” value (Day 7) was −0.019 and the “TETRAS PSTS Score CFB LS Mean” value (Day 7) was −1.253. For the same compound, the “TETRAS ULS Score CFB LS Mean” value (Day 7) was −0.967, the “TETRAS mADL (TETRAS modified total score) Score CFB LS Mean” value (Day 7) was −2.862 and the “TETRAS ADL CTA LS Mean %” value (Day 7) was −7.29%. For the same compound, the “TETRAS CULS CTA LS Mean %” value (Day 7) was −9.1%, the “TETRAS PS Item 6: Archimedes Spiral (Left) CTA LS Mean %” value (Day 7) was 22.4% and the “TETRAS PS Item 6: Archimedes Spiral (Right) CTA LS Mean %” value (Day 7) was 0.6%. For the same compound, the “TETRAS PS Item 7: Handwriting CTA LS Mean %” value (Day 7) was −2.2%, the “TETRAS PSTS CTA LS Mean %” value (Day 7) was −8.6% and the “TETRAS ULS CTA LS Mean %” value (Day 7) was −16.9%. The “TETRAS mADL CTA LS Mean %” value (Day 7) was −18.49%, the “TETRAS ADL Score CFB LS Mean” value (Day 21) was −3.475 and the “TETRAS CULS Score CFB LS Mean” value (Day 21) was −1.320. For the same compound, the “TETRAS PS Item 6: Archimedes Spiral (Left) Score CFB LS Mean” value (Day 21) was −0.012, the “TETRAS PS Item 6: Archimedes Spiral (Right) Score CFB LS Mean” value (Day 21) was −0.240 and the “TETRAS PS Item 7: Handwriting Score CFB LS Mean” value (Day 21) was 0.107. The “TETRAS PSTS Score CFB LS Mean” value (Day 21) was −1.449, the “TETRAS ULS Score CFB LS Mean” value (Day 21) was −1.143 and the “TETRAS mADL (TETRAS modified total score) Score CFB LS Mean” value (Day 21) was −2.812. For the same compound, the “TETRAS ADL CTA LS Mean %” value (Day 21) was −12.02%, the “TETRAS CULS CTA LS Mean %” value (Day 21) was −12.9% and the “TETRAS PS Item 6: Archimedes Spiral (Left) CTA LS Mean %” value (Day 21) was −1.3%. For the same compound, the “TETRAS PS Item 6: Archimedes Spiral (Right) CTA LS Mean %” value (Day 21) was −24.2%, the “TETRAS PS Item 7: Handwriting CTA LS Mean %” value (Day 21) was 11.5% and the “TETRAS PSTS CTA LS Mean %” value (Day 21) was −9.9%. For the same compound, the “TETRAS ULS CTA LS Mean %” value (Day 21) was −19.7%, the “TETRAS mADL CTA LS Mean %” value (Day 21) was −14.31% and the “TETRAS ADL Score CFB LS Mean” value (Day 42, 6 hours post-dose) was −8.207. For the same compound, the “TETRAS CULS Score CFB LS Mean” value (Day 42, 6 hours post-dose) was −1.882, the “TETRAS PS Item 6: Archimedes Spiral (Left) Score CFB LS Mean” value (Day 42, 6 hours post-dose) was −0.072 and the “TETRAS PS Item 6: Archimedes Spiral (Right) Score CFB LS Mean” value (Day 42, 6 hours post-dose) was −0.239. The “TETRAS PS Item 7: Handwriting Score CFB LS Mean” value (Day 42, 6 hours post-dose) was −0.054, the “TETRAS PSTS Score CFB LS Mean” value (Day 42, 6 hours post-dose) was −2.771 and the “TETRAS ULS Score CFB LS Mean” value (Day 42, 6 hours post-dose) was −2.090. For the same compound, the “TETRAS mADL (TETRAS modified total score) Score CFB LS Mean” value (Day 42, 6 hours post-dose) was −6.669, the “TETRAS ADL CTA LS Mean %” value (Day 42, 6 hours post-dose) was −29.59% and the “TETRAS CULS CTA LS Mean %” value (Day 42, 6 hours post-dose) was −17.9%. For the same compound, the “TETRAS PS Item 6: Archimedes Spiral (Left) CTA LS Mean %” value (Day 42, 6 hours post-dose) was −8.0%, the “TETRAS PS Item 6: Archimedes Spiral (Right) CTA LS Mean %” value (Day 42, 6 hours post-dose) was −24.1% and the “TETRAS PS Item 7: Handwriting CTA LS Mean %” value (Day 42, 6 hours post-dose) was −6.0%. For the same compound, the “TETRAS PSTS CTA LS Mean %” value (Day 42, 6 hours post-dose) was −18.1%, the “TETRAS ULS CTA LS Mean %” value (Day 42, 6 hours post-dose) was −33.0% and the “TETRAS mADL CTA LS Mean %” value (Day 42, 6 hours post-dose) was −42.04%. The “TETRAS ADL score, LS mean change from pre-dose baseline” value (“TETRAS ADL score, LS mean change” for short) (Day 7) was −1.986, the “TETRAS combined upper limb score, LS mean change from pre-dose baseline” value (Day 7) was −0.909 and the “TETRAS upper limb score, LS mean change from pre-dose baseline” value (shortened to “TETRAS upper limb score, LS mean change”) (Day 7) was −0.967. For the same compound, the “mADL score, LS mean change from pre-dose baseline” value (shortened to “mADL score, LS mean change”) (Day 7) was −2.862, the “reduction in combined upper limb tremor amplitude” value (Day 7) was 9.1% and the “reduction in upper limb tremor amplitude” value (Day 7) was 16.9%. The “ADL, LS mean change from pre-dose baseline” value [1] was −2.222, the “LS mean reduction in upper limb tremor amplitude” value [1] was 22.9% and the “mADL, LS mean change from pre-dose baseline” value [1] was −3.011. For the same compound, the “TETRAS ADL score, LS mean change” value (Day 21) was −3.475, the “TETRAS combined upper limb score, LS mean change from pre-dose baseline” value (Day 21) was −1.320 and the “TETRAS upper limb score, LS mean change” value (Day 21) was −1.143. For the same compound, the “mADL score, LS mean change” value (Day 21) was −2.812, the “reduction in combined upper limb tremor amplitude” value (Day 21) was 12.9% and the “reduction in upper limb tremor amplitude” value (Day 21) was 19.7%. The “ADL, LS mean change from pre-dose baseline” value [2] was −4.444, the “LS mean reduction in upper limb tremor amplitude” value [2] was 26.7% and the “mADL, LS mean change from pre-dose baseline” value [2] was −3.773. The “TETRAS ADL score, LS mean change” value (Day 42) was −8.207, the “TETRAS combined upper limb score, LS mean change from pre-dose baseline” value (Day 42) was −1.882 and the “TETRAS upper limb score, LS mean change” value (Day 42) was −2.090. The “mADL score, LS mean change” value (Day 42) was −6.669, the “reduction in combined upper limb tremor amplitude” value (Day 42) was 17.9% and the “reduction in upper limb tremor amplitude” value (Day 42) was 33.0%.
